Results reported in patent US8536152B2, “Methods of using diacerein as an adjunctive therapy for diabetes” (TWi Biotechnology, Inc., priority 2010, dated 2013).

Key:
[1] = tested on: type 2 (or type II) diabetes rodent models; details: type 2 diabetes rodent models; cited from earlier work
[2] = tested on: patients with type 2 diabetes inadequately controlled by current oral antidiabetic therapy; test: Same clinical study: adverse events; format: in vivo, human
Experimental: (§1) Procedure: This was a randomized, double-blind, parallel comparison study comparing 50 mg diacerein versus placebo in patients with type 2 DM inadequately controlled by previous antidiabetic therapy. The starting dose of diacerein was 50 mg once daily every morning for 4 weeks and could be adjusted up to 50 mg twice daily (morning and evening) if patients had become accustomed to the medication. Patients were screened for eligibility four weeks (week-4) prior to entry at baseline (week 0). During this 4-week screening period, the participants continued their previous antidiabetic therapy, dietary habits and other lifestyle habits. In order to be eligible for randomization following the 4-week screening period, patients must not have experienced hypoglycemia and must have had two fasting plasma glucose (FPG) measurements of between 135 to 250 mg/dL. At the end of the screening period, patients who met eligibility requirements were randomly assigned to receive diacerein 50 mg or placebo twice a day for 24 weeks observation. During treatment/observation period, the previous antidiabetic therapy including the class and/or dosage was not changed. Patients were asked to attend the center on eight occasions (screening, baseline, week 4, 8, 12, 16, 20 and 24) during the trial. The total study duration including the screening period for each patient was 28 weeks. There was a two weeks follow-up period after completion of the treatment/observation. During this follow-up period, patients were followed for adverse events.
Adverse events were summarized according to the Medical Dictionary for Regulatory Activities (MedDRA) adverse event dictionary. The tabulations counted the number of patients reporting individual preferred term adverse events and the total number of patients reporting at least one adverse event per system organ class. If appropriate, the incidence of adverse events was compared for each of the two treatment groups using Fisher's Exact test.

[3] = tested on: patients with type 2 diabetes inadequately controlled by current oral antidiabetic therapy; test: Same clinical study: cardiovascular safety endpoints (body weight, blood pressure, pulse rate, lipid profiles); format: in vivo, human; set-up: Total Cholesterol, Change / Triglyceride, Change / HDL, Change / LDL, Change: unit not given here
Description: (§2) Subjects: Male or female type 2 DM patients (BMI≦35 kg/m^2) on a stable oral hypoglycemic […] for at least 3 months prior to screening visit. The hemoglobin A1c (HbA1c) measurements taken at a screening visit were between 7% and 12%. Patients enrolled in the study were receiving one or more oral antihyperglycemic agents including sulfonylurea, biguanides, alpha-glucosidase inhibitors, thiazolidinediones (TZDs) and nonsulfonylurea insulin secretagogues.
as §1
For the efficacy parameters, descriptive statistics were presented by visit. Statistical analysis was performed to assess the mean change from baseline. The area under the concentration-time curve (AUC) was used for evaluating the parameters measured by oral glucose tolerance test.

[4] = tested on: patients with type 2 diabetes inadequately controlled by current oral antidiabetic therapy; test: Randomized, double-blind, placebo-controlled study of add-on diacerein: glycosylated hemoglobin (HbA1c); format: in vivo, human
Description: Primary Endpoints: To compare the efficacy of add-on diacerein with no add-on treatment (placebo) on glycosylated hemoglobin (HbA1c) after 24-week double-blind treatment in type 2 DM patients inadequately controlled by previous antidiabetic therapy.
as §2
as §1, with “During this follow-up period, patients were followed for adverse events.” left out
Statistical method(s) for efficacy/safety evaluations: The difference (diacerein minus placebo) of HbA1c reduction between the two treatment groups was analyzed by analysis of covariance (ANCOVA) with baseline value as covariate. The corresponding 95% confidence interval was calculated. Within-group changes were also analyzed, with paired t test used to evaluate differences from baseline in each treatment group.
For the efficacy parameters, descriptive statistics were presented by visit. […] The area under the concentration-time curve (AUC) was used for evaluating the parameters measured by oral glucose tolerance test. […]

[5] = tested on: patients with type 2 diabetes inadequately controlled by current oral antidiabetic therapy; test: Same clinical study: homeostatic model assessment (HOMA) beta cell function; format: in vivo, human
Description: as §2
as §1, with “There was a two weeks follow-up period after completion of the treatment/observation. During this follow-up period, patients were followed for adverse events.” left out
(§3) For the efficacy parameters, descriptive statistics were presented by visit. […] The area under the concentration-time curve (AUC) was used for evaluating the parameters measured by oral glucose tolerance test.

[6] = tested on: patients with type 2 diabetes inadequately controlled by current oral antidiabetic therapy; test: Same clinical study: fasting plasma glucose; format: in vivo, human; details: at 24 weeks
Description: as §2
Procedure: This was a randomized, double-blind, parallel comparison study comparing 50 mg diacerein versus placebo in patients with type 2 DM inadequately controlled by previous antidiabetic therapy. The starting dose of diacerein was 50 mg once daily every morning for 4 weeks and could be adjusted up to 50 mg twice daily (morning and evening) if patients had become accustomed to the medication. Patients were screened for eligibility four weeks (week-4) prior to entry at baseline (week 0). During this 4-week screening period, the participants continued their previous antidiabetic therapy, dietary habits and other lifestyle habits. […]
as §3

[7] = Week 24, N 28, in mg/dL (unit assumed)
[8] = Week 24, N 28, in mmHg (unit assumed)

SMILES: O=C(O)c1cc(O)c2c(c1)C(=O)c1cccc(O)c1C2=O [Rhein, 9,10-dihydro-4,5-dihydroxy-9,10-dioxo-2-anthracenecarboxylic acid]
- blood glucose concentration control [1]: control the blood glucose concentration

SMILES: CC(=O)Oc1cccc2c1C(=O)c1c(OC(C)=O)cc(C(=O)O)cc1C2=O [diacerein, 4,5-bis(acetyloxy)-9,10-dioxo-2-anthracene carboxylic acid]
- difference between the two groups in the incidence of patients complaining of adverse events ([2]; diacerein vs placebo): No statistically significant difference
- patients reporting at least one adverse effect (AE), number ([2]; during the study period): 20 patients
- patients reporting at least one adverse effect (AE), percent ([2]; during the study period): 54.1%
- symptomatic hypoglycemia ([2]; even in patients with a marked improvement in HbA1c levels): not observed
- pulse rate, Mean ± SD ([3]; Week 24, N 28): 77.18 ± 10.22
- HDL, Mean ± SD [3, 7]: 42.25 ± 10.40
- LDL, Mean ± SD [3, 7]: 91.64 ± 27.28
- Total Cholesterol, Mean ± SD [3, 7]: 164.61 ± 30.09
- Triglyceride, Mean ± SD [3, 7]: 159.18 ± 97.07
- Systolic blood pressure, Mean ± SD [3, 8]: 130.32 ± 16.85
- diastolic blood pressure, Mean ± SD [3, 8]: 78.86 ± 8.20
- HDL, Change ([3]; Week 24 vs baseline): −0.96 ± 10.27
- LDL, Change ([3]; Week 24 vs baseline): −6.09 ± 19.75
- Systolic blood pressure, Change ([3]; Week 24 vs baseline): −0.25 ± 14.38
- Total Cholesterol, Change ([3]; Week 24 vs baseline): −8.46 ± 32.20
- Triglyceride, Change ([3]; Week 24 vs baseline): −7.57 ± 98.79
- diastolic blood pressure, Change ([3]; Week 24 vs baseline): −1.14 ± 8.78
- pulse rate, Change ([3]; Week 24 vs baseline): 1.46 ± 9.00
- risks of heart attack and cardiovascular disorders ([3]; adding diacerein to current anti-diabetic treatment): did not increase
- differences between treatment groups in body weight, blood pressure, pulse rate and lipid profiles ([3]; between baseline levels and levels at week 24, diacerein vs placebo): no statistically significant differences
- between-group difference in HbA1c change (diacerein vs placebo) ([4]; 24 weeks, P=0.0158): 0.63 percentage point
- average absolute difference in HbA1c levels between baseline and 24 weeks (reduction) ([4]; add-on diacerein 50 mg twice a day, 24 weeks, within group): 0.63 percentage point
- HbA1c absolute reduction versus the placebo group ([4]; after 20 weeks, P=0.0223): 0.60%
- number of patients who had any reduction in HbA1c levels ([4]; at 24 weeks): 20 of 26
- within-group change from baseline in HOMA-BETA ([5]; over 24 weeks): significant
- HOMA beta cell function (HOMA-BETA) course over treatment ([5]; over the course of treatment): continual improvement
- HOMA-BETA ([5]; week 24): 56.26
- fasting plasma glucose levels versus placebo group [6]: consistently lower
